Experimental data published in US9988371B2, “Benzimidazole analogues and related methods” (The Arizona Board of Regents, on Behalf of the University …, priority 2014, dated 2018).

Key:
[1] = test system: LC-2/ad cells (NSCLC expressing CCDC6-RET); experiment: Growth curve proliferation assay, LC-2/ad cells; assay type: cell-based; settings: Homo sapiens, last day of growth curves
Method: FIG. 5: Effects exerted by indicated concentrations of Pz-1 or vehicle (NT: not treated) on proliferation of TT (human MTC cell line expressing RET/C634W), Lc-2/ad (human NSCLC expressing CCDC6-RET) and Nthy-ori-3-1 (thyroid non-transformed) cell lines. Data are the mean±SD (Standard Deviation) of one experiment performed in triplicate. Bottom, right) Growth inhibition IC50 of Pz-1 for the different cell lines: 95% CI (confidence intervals) are indicated in brackets. Cells were seeded in triplicate in 60-mm dishes and kept in 5% (Nthy-ori-3-1) or 10% (TT and Lc-2/ad) fetal calf serum. The day after plating, different concentrations of Pz-1 or vehicle were added to the medium and changed every 2-3 days. Cells were counted every 2-3 days and cell numbers were reported±SD (Standard Deviation). IC50 doses (with Confidence Intervals) were calculated through a curve fitting analysis from the last day of growth curves using the PRIZM software program (Graphpad Software Inc).
Nthy-ory-3-1 and TTcells were seeded in 60-mm dishes. […] Cells were counted every 2-3 days. […] Parental and RET/PTC-expressing Ba/F3 were kept in 10% fetal calf serum in 6-multi wells and counted every day for 4 consecutive days, changing media every 2 days. […] IC50 doses were calculated through a curve fitting analysis from the last day of growth curves using the PRISM software program (Graphpad Software Inc). […]

parental Ba/F3 cells = experiment: Proliferation of parental Ba/F3 cells; assay type: cell-based, murine; settings: parental Ba/F3, with IL-3
Method: FIG. 6: Activity of Pz-1 on NCOA4-RET oncogene-driven IL-3-independent proliferation of murine Ba/F3 cells. […] Ba/F3 and Ba/F3 NCOA4-RET cells were incubated with vehicle (NT) or the indicated concentration of Pz-1 in complete medium and counted at different time points. Data are the mean±SD of one experiment performed in triplicate. Murine interleukin-3 (IL-3) dependent pro-B Ba/F3 cells were from ATCC. Ba/F3 cells stably expressing NCOA4-RET (RET/PTC3) protein were generated by transfecting long isoform (RET-51) of NCOA4-RET by electroporation. Parental and Ba/F3-NCOA4-RET cells were cultured in RPMI 1640 with 10% FBS; parental cells required also 10 ng/ml IL-3. IC50 doses (with Confidence Intervals) are indicated.
Nthy-ory-3-1 and TTcells were seeded in 60-mm dishes. Cells were kept in 2% (Nthy-ori-3-1) or 10% (TT) fetal calf serum. One day after plating, different concentrations of Pz-1 or vehicle were added to the medium and changed every 2-3 days. Cells were counted every 2-3 days. […] Parental and RET/PTC-expressing Ba/F3 were kept in 10% fetal calf serum in 6-multi wells and counted every day for 4 consecutive days, changing media every 2 days. […] IC50 doses were calculated through a curve fitting analysis from the last day of growth curves using the PRISM software program (Graphpad Software Inc). […]

[2] = test system: intracellular signaling (SHC, MAPK, p70S6K and S6RP); experiment: In vivo target inhibition, RET phosphorylation and signaling in HRAS/G12V-induced tumors; set-up: species or system nude mice; settings: 48 hr, 1.0 or 3.0 mg/kg daily
Method: FIG. 9: Photographs of blots showing effects of Pz-1 on cellular phosphorylation events in tumors induced in nude mice (from FIG. 8) by injection of NIH3T3 fibroblasts transformed by RET/C634Y or HRAS/G12V. […] Some of the vehicle-treated tumors, at the end of the tumor growth experiment described in FIG. 8, were treated for 48 hr with different doses of Pz-1 (TR) or left untreated (NT). At the end of the treatment, 50 μg of tumor protein lysates were subjected to immunoblotting with anti-phospho-Y1062 (αp1062) and anti-phospho-905 (αpY905) RET antibodies, anti-phospho-MAPK (αpMAPK, T302/Y304), anti-phospho-SHC (αpSHC, Y317), anti-phospho-p70S6K (αpp70S6K, T389), anti-phospho-S6RP (αpS6RP, S235/S236), and anti-phospho-VEGFR2 (αpVEGFR2 pY1175) antibodies. The blots were normalized using anti-RET (αRET), anti-SHC (αSHC), anti-MAPK (αMAPK), anti-p70S6K (αp70S6K), anti-S6RP (αS6RP) or anti-VEGFR2 (αVEGFR2) antibodies.
Some of the vehicle-treated tumors, at the end of the tumor growth experiment reported in FIG. 8, were treated for 48 hr with different doses of Pz-1 (1.0 or 3.0 mg/kg daily) or left untreated. […]

Cn1cc(-c2ccc3c(c2)ncn3-c2ccc(CC(=O)Nc3cc(C(C)(C)C)on3)cc2)cn1 [Pz-1, N-(5-(tert-butyl)isoxazol-3-yl)-2-(4-(5-(1-methyl-1H-pyrazol-4-yl)-1H-benzo[d]imidazol-1-yl)phenyl)acetamide]
IC50 [1]: 0.907 nM | inhibition of proliferation (parental Ba/F3 cells): inhibition of proliferation by Pz-1 for Ba/F3-NCOA4-RET but not parental Ba/F3 | RET phosphorylation and intracellular signaling (SHC, MAPK, p70S6K and S6RP) in tumors [2]: only in RET/C634Y-induced tumors
